Structures can show the parent of a compound that is named as a salt. Where two headings read alike, the source gives them in different places. Values belong to the molecule of their own block, whether it stands above or below them. Non-standard residues stand in square brackets, D forms with d. Residues, ends and D or L forms follow the SMILES beside them. Dopa = N[C@@H](Cc1ccc(O)c(O)c1)C(=O)O
How the values were obtained:
[1] = physchem; assay type: physicochemical
Description: The volume of the solution in the bottle was adjusted to 5 ml, either by adding solvent, or be removing any residual solution, after which the bottle was tightly closed and left at 25° C. for stability observation. It is noted that throughout Example 4, the concentrations in the tables below were calculated taking into account the amount of solvent added or the solution removed, in which event, the calculations were performed regarding the 5 ml+(amount removed) as the volume of the solution. It is further noted that throughout this document, unless mentioned otherwise, the stability was measured using the manual visual inspection Bosch apparatus MIH DX, at a magnification of ×1.75.
(§1) The LD-Tyr free base, prepared according to Example 2, was added to a solvent, as detailed in Table 7 below, and neutralized by addition of NaOH. When maximum solubility was observed, the solution was filtered and then transferred to a bottle that was previously weighed and flushed with nitrogen. The volume of the solution in the bottle was adjusted to 5 ml, after which the bottle was tightly closed and left at 25° C. for stability observation.
(§2) When maximum solubility was observed, the solution was filtered and then transferred to a bottle that was previously weighed and flushed with nitrogen. The volume of the solution in the bottle was adjusted to 5 ml, after which the bottle was tightly closed and left at 25° C. for stability observation.
as §2, with “stored” for “left”
as §2, with “stored” for “left”
as §1, with “LD-Lys TFA salt,” for “The LD-Tyr free base,”, “1, and which comprises two equivalents of TFA,” for “2,”, “11” for “7”, “stored” for “left”
as §2, with “As detailed above regarding other solutions, with the LD-Tyr free base when” for “When”
as §1, with “LD-Lys HCl salt,” for “The LD-Tyr free base,”, “3,” for “2,”, “13” for “7”, “by the” for “by”

[2] = In-vitro absorption, Caco-2 A-B permeability; assay type: in vitro ADME, human; conditions: human, Caco-2, pH 7.4, Caco-2 A-B, without verapamil; for Papp A→B at 60 min, 10 μM: 1.0E−05M
Description: (§3) Conditions may be adjusted when necessary.
(§4) D denotes donor and R is receiver. […] V is the volume of the donor or receiver.
(§5) The test was performed with and without verapamil, which is a permeation inhibitor, and the results are presented in Tables 22 (without verapamil) and 34 (with verapamil).

[3] = system: P-gp; experiment: In-vitro absorption, Caco-2 A-B permeability; assay type: in vitro ADME, human; conditions: human, Caco-2, pH 7.4, with verapamil 100 μM on both the A and B sides, Caco-2 A-B, in the presence of verapamil
Description: as §3, §4, §5

[4] = in vitro; conditions: human
Description: Caco-2 cells are human intestinal epithelial cells derived from a colorectal adenocarcinoma.
The assays are performed in both the apical to basolateral (A-B) and the B-A direction. The test compound is prepared at 10 μM in HBSS-HEPES (pH 7.4) with a final DMSO concentration of 1%. The working solution is centrifuged, and the supernatant is added to the donor side. The assay plate is incubated at 37° C. with gentle shaking for 60 min or 40 min for the A-B or B-A assay, respectively. For Pgp substrate assessment, the assays are run with and without 100 μM verapamil on both the A and B sides. For BCRP substrate assessment, the assays are run with and without 10 μM Ko143 on both the A and B sides. For MRP2 substrate assessment, the assays are run with and without 100 μM MK571 on both the A and B sides. Samples are aliquoted from the donor side at time zero and the end point, and from the receiver side at the end point.
Propranolol (highly permeable), labetalol (moderately permeable), ranitidine (poorly permeable), and colchicine (P-glycoprotein substrate), estrone-3-sulfate (BCRP substrate), or CDCF (MRP2 substrate) are included in each assay.
Samples are analyzed by HPLC-MS/MS using selected reaction monitoring. The HPLC system consists of a binary LC pump with an autosampler, a C-18 column, and a gradient. Conditions may be adjusted when necessary.
Fluorescein permeability is assessed in the A-B direction at pH 7.4 on both sides after the permeability assay with the test compound. The cell monolayer with a fluorescein permeability of less than 1.5×10−6 cm/s is considered intact.
The apparent permeability coefficient (Papp) of the test compound and its recovery are calculated as follows: […]
A is the surface area of the cell monolayer (0.11 cm^2). C is concentration of the test compound, expressed as peak area. D denotes donor and R is receiver. 0, mid, and end denote time zero, mid-point, and end of the incubation. Δt is the incubation time. V is the volume of the donor or receiver.
The permeability capabilities of the several LDAA compounds, in their TFA salt form, were determined using the Caco-2 B-A method.

[5] = In-vitro metabolism of LDAA compounds using liver microsomes; assay type: in vitro ADME, human; conditions: for half-life at 0.1 μM: pH 7.4, 1.0E−07M, 0.1 mg/mL microsomal protein
Description: The stability of test compounds in pooled human liver microsomes was determined on 96-well plates, wherein the test compounds were quantified at five time points by HPLC-MS/MS analysis. The assay matrix included mixed gender and a pool of 50 human liver microsomes, wherein the final microsomal protein concentration was 0.1 mg/mL. The test concentration was 0.1 μM with 0.01% DMSO, 0.25% acetonitrile and 0.25% methanol.
Each test compound was pre-incubated for five minutes with pooled liver microsomes in phosphate buffer (pH 7.4) in a 37° C. shaking water-bath. The reaction was initiated by adding a nicotinamide adenine dinucleotide phosphate (NADPH)-generating system and incubating for 0, 15, 30, 45, and 60 min. The reaction was stopped by transferring the incubation mixture to acetonitrile/methanol. Samples were then mixed and centrifuged, wherein the supernatants were used for HPLC-MS/MS analysis.
In each assay the four reference compounds propranolol, imipramine, verapamil and terfenadine were tested, wherein the propranolol and the imipramine are known to be relatively stable, while the verapamil and the terfenadine are known to be readily metabolized in human liver microsomes.
All samples were analyzed by HPLC-MS/MS using selected reaction monitoring. The HPLC system consisted of a binary LC pump with autosampler, a C-18 column, and a gradient. The conditions were adjusted when necessary.
Peak areas corresponding to the test compound were recorded. The amount of each compound remaining was calculated by comparing the peak area at each time point to time zero. The half-life is calculated from the slope of the initial linear range of the logarithmic curve of compound remaining (%) vs. time, assuming first order kinetics. In addition, the intrinsic clearance (Clint) was calculated from the half-life using the following equation:
Clint(μL/min/mg protein)=0.693/(t1/2×protein concentration)
The results of the in-vitro human liver microsome metabolism tests of various LDAA compounds (10^−7M), in their TFA salt forms, are provided in FIG. 1 and in Table 17, which presents the % of the compound remaining at times 0, 15, 30, 45 and 60 minutes, two half-life measurements and the Clint, calculated as detailed above.

[6] = solvent 0.75% CD solution, pH 8.65
[7] = solvent 0.63% CD solution, pH 7.71
[8] = read-out: Percent Recovery Mean
[9] = incubation time 0 minutes, 1.0E−07M
[10] = incubation time 15 minutes, 1.0E−07M
[11] = incubation time 30 minutes, 1.0E−07M
[12] = incubation time 45 minutes, 1.0E−07M
[13] = incubation time 60 minutes, 1.0E−07M

Compound: N[C@@H](Cc1ccc(O)c(O)c1)C(=O)N[C@@H](Cc1ccc(O)cc1)C(=O)O [LD-Tyr HCl salt] (H-[Dopa]-Tyr-OH)
Appearance ([1]; 0.75% CD solution, pH 8.65, 297 mg/ml salt): clear
Appearance ([1]; WFI, pH 8.46, 300 mg/ml salt): clear
LD-Tyr HCl salt concentration [1, 6]: 297 mg/mL
LD-Tyr free base Concentration [1, 6]: 257 mg/mL
LD-Tyr HCl salt concentration ([1]; solvent WFI, pH 8.46): 300 mg/mL
LD-Tyr free base Concentration ([1]; solvent WFI, pH 8.46): 260 mg/mL

Compound: N=C(N)NCCC[C@H](NC(=O)[C@@H](N)Cc1ccc(O)c(O)c1)C(=O)O [LD-Arg HCl salt]
Appearance ([1]; 0.2% NaBis in WFI, pH 7.02, 550 mg/ml salt): clear
Appearance ([1]; 0.63% CD solution, pH 7.71, 520 mg/ml salt): clear
solubility thermodynamic ([1]; 25 °C, aqueous buffer, thermodynamic from solid, solvent 0.2% NaBis in WFI, pH 7.02): 550 mg/mL
Appearance ([1]; WFI, pH 7.3, 500 mg/ml salt): clear
LD-Arg free base Concentration ([1]; solvent 0.2% NaBis in WFI, pH 7.02): 440 mg/mL
LD-Arg HCl salt concentration [1, 7]: 520 mg/mL
LD-Arg free base Concentration [1, 7]: 420 mg/mL
LD-Arg HCl salt concentration ([1]; solvent WFI, pH 7.3): 500 mg/mL
LD-Arg free base Concentration ([1]; solvent WFI, pH 7.3): 390 mg/mL

Papp A→B at 60 min, 10 μM ([2]; read-out: Permeability 1st): 0.03 ×10⁻⁶ cm/s
Papp A→B at 60 min, 10 μM ([2]; read-out: Permeability 2nd): 0.02 ×10⁻⁶ cm/s
recovery at 60 min, 10 μM ([2]; read-out: Percent Recovery 1st): 65%
recovery at 60 min, 10 μM ([2]; read-out: Percent Recovery 2nd): 62%
recovery at 60 min, 10 μM [2, 8]: 64%
recovery at 60 min, 10 μM ([3]; read-out: Percent Recovery 1st): 60%
recovery at 60 min, 10 μM ([3]; read-out: Percent Recovery 2nd): 59%
recovery at 60 min, 10 μM [3, 8]: 59%
recovery at 40 min, 10 μM ([4]; Caco-2, pH 7.4, Percent Recovery 1st): 93%
recovery at 40 min, 10 μM ([4]; Caco-2, pH 7.4, Percent Recovery 2nd): 78%
recovery at 40 min, 10 μM ([4]; Caco-2, pH 7.4, Percent Recovery Mean): 85%
Papp B→A at 40 min, 10 μM ([4]; Caco-2, pH 7.4, Permeability 1st): 0.38 ×10⁻⁶ cm/s
Papp B→A at 40 min, 10 μM ([4]; Caco-2, pH 7.4, Permeability 2nd): 0.33 ×10⁻⁶ cm/s
Papp B→A at 40 min, 10 μM ([4]; Caco-2, pH 7.4, Permeability Mean): 0.4 ×10⁻⁶ cm/s
half-life at 0.1 μM ([5]; both sexes, human, pooled human liver microsomes, read-out: Half-Life (minute) 1st): 54.5 min
half-life at 0.1 μM ([5]; both sexes, human, pooled human liver microsomes, read-out: Half-Life (minute) 2nd): 54.1 min
half-life at 0.1 μM ([5]; both sexes, human, pooled human liver microsomes, read-out: Half-Life (minute) Mean): 54 min
microsomal CLint at 0.1 μM ([5]; both sexes, human, pooled human liver microsomes, pH 7.4, calculated from the half-life, 1.0E−07M): 128 µL/min/mg
% Compound Remaining 1st [5, 9]: 100%
% Compound Remaining 2nd [5, 9]: 100%
% Compound Remaining Mean [5, 9]: 100%
% Compound Remaining 1st [5, 10]: 103.7%
% Compound Remaining 2nd [5, 10]: 108.1%
% Compound Remaining Mean [5, 10]: 106%
% Compound Remaining 1st [5, 11]: 86.7%
% Compound Remaining 2nd [5, 11]: 77.9%
% Compound Remaining Mean [5, 11]: 82%
% Compound Remaining 1st [5, 12]: 57.5%
% Compound Remaining 2nd [5, 12]: 56.4%
% Compound Remaining Mean [5, 12]: 57%
% Compound Remaining 1st [5, 13]: 51.7%
% Compound Remaining 2nd [5, 13]: 52.9%
% Compound Remaining Mean [5, 13]: 52%
Compound: N[C@@H](Cc1ccc(O)c(O)c1)C(=O)NCC(=O)O [LD-Gly TFA salt, Levodopa Glycine TFA Salt]
